For one experiment, the target named is Tubulin. Nature of the experiment: Inhibition of tubulin polymerization (unknown origin). The format is protein-complex assay, Homo sapiens.
Experiment [1] can be described thus: Antiproliferative activity against human […] cells assessed as reduction in cell growth incubated for 48 hrs by MTT assay. The format is functional, cell-based.
Experiment [2] deals with A549. The experiment is described as follows: Antiproliferative activity against human A549 cells assessed as reduction in cell growth incubated for 48 hrs by MTT assay. The format is functional, cell-based. Particulars: A549, 48 h.
Experiment [3] deals with HeLa. The experiment is described as follows: Antiproliferative activity against human HeLa cells assessed as reduction in cell growth incubated for 48 hrs by MTT assay. The format is functional, cell-based.
In a further experiment the test system is K562. Nature of the experiment: Antiproliferative activity against human K562 cells assessed as reduction in cell growth incubated for 48 hrs by MTT assay. The format is functional, cell-based. Particulars: K562, 48 h.
Experiment [4] can be described thus: Antiproliferative activity against human MCF cells assessed as reduction in cell growth incubated for 48 hrs by MTT assay. The format is functional, cell-based. (In general: Tetrazolium assays rely on reduction of a dye to a coloured formazan, in cell work by metabolically active cells.)
The next experiment concerns WiDr. Nature of the experiment: Antiproliferative activity against human WiDr cells assessed as reduction in cell growth incubated for 48 hrs by MTT assay. The format is functional, cell-based.
The subject of experiment [5] is P388. Nature of the experiment: Antiproliferative activity against mouse P388 cells assessed as reduction in cell growth incubated for 48 hrs by MTT assay. Particulars: P388, 48 h. The format is functional, cell-based.
In the next experiment the test system is MDA-MB-231. Nature of the experiment: Antiproliferative activity against human MDA-MB-231 cells assessed as reduction in cell growth. The format is functional, cell-based.
The subject of experiment [6] is A549. The experiment is described as follows: Antiproliferative activity against human A549 cells assessed as reduction in cell growth incubated for 24 hrs by MTT assay. To be noted: A549, 24 h. The format is functional, cell-based.
The next experiment deals with A-375. The experiment is described as follows: Antiproliferative activity against human A375 cells assessed as reduction in cell growth incubated for 24 hrs by MTT assay. The format is functional, cell-based. To be noted: A-375, 24 h.
The test system of another experiment is MCF7. The experiment is described as follows: Antiproliferative activity against human MCF7 cells assessed as reduction in cell growth. The format is functional, cell-based.
The next experiment relates to BGC-823. Nature of the experiment: Antiproliferative activity against human BGC823 cells assessed as reduction in cell growth incubated for 24 hrs by MTT assay. The format is functional, cell-based. To be noted: BGC-823, 24 h.
The test system of experiment [7] is HeLa. Nature of the experiment: Antiproliferative activity against human HeLa cells assessed as reduction in cell growth. The format is functional, cell-based.
A short description of experiment [8]: Antiproliferative activity against mouse EMT6/AR1 cells assessed as reduction in cell growth. The format is functional, cell-based.
The next experiment deals with CA46. Nature of the experiment: Cytotoxicity against human CA46 cells assessed as inhibition of tubulin polymerization after 36 hrs. The format is functional, cell-based. To be noted: CA46, 36 h.
Experiment [9] can be described thus: Potency index, ratio of paclitaxel IC50 to laulimalide IC50 for cytotoxicity against human SKVLB-1 cells. The format is functional.
The nature of experiment [10]: Cytotoxicity against mouse tsFT210 cells. The format is functional.
The species entered for a further experiment is Bos taurus. The experiment is described as follows: Inhibition of bovine brain microtubule assembly at 250 uM by turbidimetric assay relative to control.
Experiment [11] in a line: Antiproliferative activity against human MEL28 cells assessed as reduction in cell growth. The format is functional, cell-based. To be noted: SK-MEL-28.
The test system of experiment [12] is A549. The experiment is described as follows: Antiproliferative activity against human A549 cells assessed as reduction in cell growth. The format is functional, cell-based.
For a further experiment, the system named is HT-29. The experiment is described as follows: Antiproliferative activity against human HT-29 cells assessed as reduction in cell growth. The format is functional, cell-based.
The next experiment concerns U-937. The experiment is described as follows: Antiproliferative activity against human U937 cells assessed as reduction in cell growth. The format is functional, cell-based.
For experiment [13], the system named is P388. The experiment is described as follows: Antiproliferative activity against mouse P388 cells assessed as reduction in cell growth. The format is functional, cell-based.
The next experiment deals with SKM-1. The experiment is described as follows: Antiproliferative activity against human SKM1 cells assessed as reduction in cell growth. The format is functional, cell-based.

Experimental findings from ChEMBL document CHEMBL4385609, “Anti-tubulin agents of natural origin: Targeting taxol, vinca, and colchicine binding domains” (Eur J Med Chem, 2019) are described below.

Converted amounts (≈) assume the structure as drawn.

A word on the IC50: it is the concentration at which inhibition is half-maximal. Consider `CC(C)(C)c1[nH]cnc1/C=c1\[nH]c(=O)/c(=C/c2cc(F)ccc2F)[nH]c1=O`, for which the IC50 on Tubulin amounted to 2.6 nM.
Consider `C=CC(C)(C)c1[nH]cnc1/C=C1\NC(=O)[C@H](Cc2ccccc2)NC1=O`, for which the IC50 (in experiment [1]; in the experiment with A549 [2]; in the experiment on HeLa [3]; with K562; in experiment [4]; in the experiment on WiDr) was 180 to 330 nM in each case. Also, the IC50 with P388 [5] was in the range of 180 to 330 nM.
For the compound `COc1cc(/C=N/OC/C=C/C=C(\C)CCC(O)c2cccs2)cc(OC)c1OC` (centres undefined), the IC50 in the experiment on MDA-MB-231 turned out to be 120 nM.
Take `CC[C@@]1(C)Oc2cc(c([S+]([O-])CCCCCO)cc2O)[C@@H](O)[C@H](NC)C(=O)N[C@@H](C(C)C)C(=O)NC1C(=O)NCC(=O)O` (some centres undefined): the IC50 in the experiment on A549 [6] was determined as 36500 nM; with A-375 it was 22500 nM.
With `C=CCC1(CC/C(C)=C/C=C/CC/C=C\[C@]2(C)CSC([C@@H]3C[C@@H]3C)=N2)OCCO1`, the 50% inhibitory concentration (IC50) with MCF7 came out at 30 nM.
Turning to `CC[C@@]1(C)Oc2cc(c([S+]([O-])C[C@@H](O)C[C@H](N)C(=O)O)cc2O)[C@@H](O)[C@H](NC)C(=O)N[C@@H](C)C(=O)NC1C(=O)NCC(=O)O` (some centres undefined), the half-inhibitory concentration (IC50) in the experiment on BGC-823 worked out at 1030 nM.
In turn, `CC(C)(C)c1[nH]cnc1/C=c1\[nH]c(=O)/c(=C/C(=O)c2ccccc2)[nH]c1=O` registered a concentration for half-maximal inhibition (IC50) against Tubulin of 1400 nM.
For `COc1cc2cc(c1Cl)N(C)C(=O)C[C@H](OC(=O)C(C)C)[C@]1(C)O[C@@H]1[C@H](C)[C@@H]1C[C@@](O)(NC(=O)O1)[C@H](OC)/C=C/C=C(\C)C2` [ANSAMITOCIN P3], the half-inhibitory concentration (IC50) is 2.06 nM in the experiment on MCF7, 5.06 nM with HeLa [7], 141 nM in experiment [8] and 15.1 nM in the experiment on MDA-MB-231.
For `COc1ccc(-c2oc3cc(O)c(OC)c(O)c3c(=O)c2OC)cc1O` [CENTAUREIDIN], in the experiment with CA46, the 50% inhibitory concentration (IC50) was determined as 2000 nM.
Turning to `C=C1C[C@H](C)C[C@@H]2CC=C[C@@H](C/C=C\C(=O)O[C@H]([C@@H](O)/C=C/[C@@H]3CC(C)=CCO3)C[C@@H]3O[C@H]3[C@@H](O)C1)O2` [FIJIANOLIDE B], in experiment [9], the “Ratio IC50” value amounted to 100.
The inhibition is the share of the control response that was lost under treatment. The low end stands for a response near the control, the high end for a response far below the control. For the compound `COc1ccc2c(C[C@@H]3NC(=O)[C@@H]4CCCN4C3=O)c(CC=C(C)C)[nH]c2c1` [TRYPROSTATIN A], in [10], the MIC stood at 16.4 µM (≈ 6.26 µg/mL). Further, the inhibition in the experiment listed under Bos taurus is 40%.
`CC(C)=CCc1[nH]c2ccccc2c1C[C@@H]1NC(=O)[C@@H]2CCCN2C1=O` [TRYPROSTATIN B]: the MIC in experiment [10] was 4.4 µM (≈ 1.55 µg/mL).
Regarding `C=C1C[C@@H]2C/C=C/C(=O)C/C(C)=C\C=C\C(=O)O[C@H]([C@H](O)NC(=O)/C=C\C=C\C)C/C(C)=C/[C@H](C1)O2` [ZAMPANOLIDE], the concentration for half-maximal inhibition (IC50) in [11] was 1 to 5 ng/mL (≈ 2.02 to 10.1 nM); with A549 [12], 1 to 5 ng/mL (≈ 2.02 to 10.1 nM); in the experiment on HT-29, 1 to 5 ng/mL (≈ 2.02 to 10.1 nM); with U-937 it was 2.9 nM; in the experiment on P388 [13], 1 to 5 ng/mL (≈ 2.02 to 10.1 nM); in the experiment on SKM-1 it was 1.1 nM.
